Measurements as given in the NIST ThermoML archive (doi:10.1016/j.fluid.2014.09.014).

Assay: refractive index (other wavelength) (dimensionless); xn = mol fraction of the nth substance listed
Details: 313.15 K, 101 kPa, Liquid, Standard Abbe refractometry

CC(C)OC(C)C [diisopropyl ether] + CO
refractive index
Details | Wavelength=587.6 nm | Wavelength=589.3 nm | Wavelength=632.8 nm | Wavelength=644 nm
x2 = 0 | – | 1.35694 | 1.35572 | 1.35543
x2 = 0.0423 | – | 1.35688 | 1.35563 | 1.35534
x2 = 0.0424 | – | 1.3569 | 1.35568 | 1.3554
x2 = 0.082 | – | 1.35685 | 1.35562 | 1.35532
x2 = 0.0822 | – | 1.35704 | 1.35581 | 1.35552
x2 = 0.1171 | – | 1.3569 | 1.35567 | 1.35538
x2 = 0.1271 | – | 1.35691 | 1.35566 | 1.35538
x2 = 0.1827 | – | 1.35671 | 1.35548 | 1.35518
x2 = 0.2162 | – | 1.35656 | 1.35535 | 1.35505
x2 = 0.251 | – | 1.35622 | 1.35489 | 1.3546
x2 = 0.3298 | – | 1.35621 | 1.35494 | 1.35463
x2 = 0.3577 | – | 1.3559 | 1.35417 | 1.35388
x2 = 0.4497 | – | 1.35414 | 1.35292 | 1.35264
x2 = 0.4525 | – | 1.35454 | 1.35331 | 1.35302
x2 = 0.522 | – | 1.35241 | 1.3512 | 1.35091
x2 = 0.5543 | 1.3516 | 1.35155 | 1.35036 | 1.35008
x2 = 0.609 | 1.34934 | 1.34929 | 1.3481 | 1.34783
x2 = 0.6529 | 1.34786 | 1.34781 | 1.34667 | 1.34638
x2 = 0.7504 | 1.34401 | 1.34396 | 1.34279 | 1.34252
x2 = 0.804 | 1.33965 | 1.3396 | 1.33846 | 1.33821
x2 = 0.807 | 1.33975 | 1.3409 | 1.33854 | 1.33829
x2 = 0.8727 | 1.33626 | 1.33609 | 1.33509 | 1.33482
x2 = 0.9233 | 1.3284 | 1.32835 | 1.32726 | 1.32702
x2 = 0.9253 | 1.33006 | 1.33001 | 1.32891 | 1.32867
x2 = 0.9527 | 1.32712 | 1.32708 | 1.32598 | –
x2 = 0.9773 | 1.32383 | 1.32378 | 1.32372 | –
x2 = 0.989 | 1.32263 | 1.32259 | 1.32154 | –
x2 = 0.9964 | 1.32167 | 1.32163 | 1.32058 | –
